Source: patent US8383582B2, “Inhibitor against forming biofilm comprising κ-casein macropeptide” (Industry Foundation of Chonnam National University, priority 2010, dated 2013)

How the values were obtained:
Format in all cases: cell-based, Listeria monocytogenes
[1] = system: L. monocytogenes Scott A to HT-29 cell; assay: Adhesion analysis on HT-29 cells; settings: CMP 0.4 mg/ml, at the lower MOI, 30 min 37° C.
Excerpt: The human intestinal epithelial cell line HT-29 and the human gastric epithelial cell line AGS were purchased from the Korea Cell Line Bank (KCLB; Seoul, Korea). HT-29 cells have been extensively used as a model system for studying interaction of enteric pathogens with intestinal epithelial cells. All media and fetal bovine serum (FBS) were obtained from Gibco BRL (Life Technologies Inc., Grand Island, N.Y., USA) and JBI (Jeil Biotech services Inc., Seoul, Korea). The HT-29 and AGS cells were grown in RPMI-1640 medium which was supplemented with 10% heat-inactivated FBS. The cells were routinely cultured at 37° C. in 5% CO2 incubator with 6-well or 12-well tissue culture plates for adhesion and invasion assays and in 100-mm-diameter tissue culture plates for RNA isolation.
Prior to the adhesion assay, the HT-29 and the AGS cells monolayers were washed three times in pre-warm PBS (25° C.) to remove any culture medium and non-attached cells. The adhesion assays were performed using L. monocytogenes Scott A according to the method of Hagman et al. (1999) with modifications. Bacteria were grown overnight at 37° C. in TSBYE. […]

L. monocytogenes [2] = assay: Biofilm formation on PVC microplates under static condition (crystal violet, A595); settings: for inhibitory rate of biofilm formation (group): 24 h incubation
Excerpt: The quantification of biofilm production on plastic microtiter plates and glass tubes was based on a previously described method (Djordjevic et al., 2002). As abiotic surfaces for biofilm formation, 96-well polyvinyl chloride (PVC) microplates (BD Biosciences, San Jose, Calif., USA) and Pyrex glass tube (10 mm by 20 mm) were used. Overnight cultures of 12 strains of L. monocytogenes were twice washed with PBS and inoculated at 10^6 CFU/ml in modified Welshimer's broth (MWB) supplemented different concentrations of CMP (Davisco Foods International, Inc., MN, USA; 0.1, 0.2, and 0.4 mg/ml or 1.0, 2.0, and 4.0 mg/ml). After incubation at 30° C. without agitation for 24 and 48 h, the microplates were twice rinsed thoroughly with double-distilled water, and a 0.1% (w/v) solution of crystal violet (CV) was added to stain the attached cells. Following staining at room temperature for 30 min, CV was removed and the wells were rinsed with double-distilled water thrice. After the microplates were air dried, the dye was solubilized with 95% ethanol solution. The absorbance at 595 nm of the solubilized dye was subsequently determined by using an enzyme-linked immunosorbent assay (ELISA) plate reader (Molecular Devices, Sunnyvale, Calif., USA). An equal volume of 95% ethanol was added in the control wells.
All experiments were conducted at least in triplicate. The effects of each treatment were analyzed by analysis of variance (ANOVA) followed by Duncan's test with the SAS software package (version 9.1; SAS, Inc., Cary, N.C., USA). The level of significance was defined at p<0.05.

L. monocytogenes [3] = assay: Growth yields in MWB at 30° C.; settings: data not shown

Q: How did the “adhesion of L. monocytogenes Scott A” value [1] turn out when κ-casein macropeptide [CMP] was run?
A: prevented

Q: What about the “inhibitory effects on biofilm formation at low concentrations” value (L. monocytogenes [2]; 0.1, 0.2, or 0.4 mg/ml tested, effect at 0.4 mg/ml) of the same substance?
A: profound inhibitory effects

Q: And the “differences in biofilm inhibition among the tested concentrations” value (L. monocytogenes [2]; 1, 2, or 4 mg/ml of CMP)?
A: no significant differences

Q: What about the “decrease of L. monocytogenes biofilms compared to the control” value (L. monocytogenes [2]; PVC microplates, 1, 2, or 4 mg/ml of CMP) of the same substance?
A: < 90%

Q: What about the “inhibitory rate of biofilm formation (group)” value (“inhibitory rate” for short) (L. monocytogenes [2]; strain 17, PVC microplates) of the same substance?
A: high inhibition (90%≦inhibition rate represent high inhibition)

Q: What about the “inhibitory rate” value (L. monocytogenes [2]; strain 18, PVC microplates) of the same substance?
A: high inhibition (90%≦inhibition rate represent high inhibition)

Q: And the “inhibitory rate” value (L. monocytogenes [2]; strain 70, PVC microplates)?
A: low inhibition (inhibition rate<87% represent low inhibition)

Q: What about the “inhibitory rate” value (L. monocytogenes [2]; strain 106, PVC microplates) of the same substance?
A: medium inhibition (87%≦inhibition rate<90% represent medium inhibition)

Q: And the “inhibitory rate” value (L. monocytogenes [2]; strain 303, PVC microplates)?
A: low inhibition (inhibition rate<87% represent low inhibition)

Q: And the “inhibitory rate” value (L. monocytogenes [2]; strain 3982, PVC microplates)?
A: high inhibition (90%≦inhibition rate represent high inhibition)

Q: What about the “inhibitory rate” value (L. monocytogenes [2]; strain 3990, PVC microplates) of the same substance?
A: high inhibition (90%≦inhibition rate represent high inhibition)

Q: What about the “inhibitory rate” value (L. monocytogenes [2]; strain Brie-1, PVC microplates) of the same substance?
A: high inhibition (90%≦inhibition rate represent high inhibition)

Q: And the “inhibitory rate” value (L. monocytogenes [2]; strain LCDC, PVC microplates)?
A: low inhibition (inhibition rate<87% represent low inhibition)

Q: And the “inhibitory rate” value (L. monocytogenes [2]; strain Scott A, PVC microplates)?
A: low inhibition (inhibition rate<87% represent low inhibition)

Q: What about the “inhibitory rate” value (L. monocytogenes [2]; strain V7, PVC microplates) of the same substance?
A: medium inhibition (87%≦inhibition rate<90% represent medium inhibition)

Q: What about the “inhibitory rate” value (L. monocytogenes [2]; strain V37, PVC microplates) of the same substance?
A: medium inhibition (87%≦inhibition rate<90% represent medium inhibition)

Q: What about the “effect on growth yields” value (L. monocytogenes [3]) of the same substance?
A: did not significantly affect
